Assay results as given in patent US20060063930A1, “Compositions and methods comprising proteinase activated receptor antagonists” (priority 2004, published 2006).
Counter-ions that a name gives are not always drawn. Where no end group is shown, it is not given here. [ ]: non-standard residue; d: D form. Phe(4-NH2) = Nc1ccc(C[C@H](N)C(=O)O)cc1; Sta = CC(C)C[C@H](N)[C@@H](O)CC(=O)O; Hyp = O=C(O)[C@@H]1C[C@@H](O)CN1; Nip = nipecotic acid residue; Orn = NCCC[C@H](N)C(=O)O; Dab = NCC[C@H](N)C(=O)O; Imid = not defined here; Dap = NC[C@H](N)C(=O)O

What follows are compounds tested on PAR-2 (assay: Inhibition of PAR-2 activating peptide (AP2) calcium signaling in cells pretreated with antagonist). Settings: mimetic antagonists; AUC of calcium mobilization treated/control; initially screened at 1 mM compound.
Format: cell-based, human
Parameters: key to PAR-2 AP2 Signaling Treated/Control (T/C) / PAR-2 AP2 Signaling Treated/Control: AUC of calcium mobilization, treated ÷ control wells
Method: In order to assess the potential of peptides and molecules selected above to block PAR-2 signaling, cells were pretreated with potential antagonist peptides for a predetermined amount of time and were subsequently treated with various GPCR agonists. Confluent Lewis lung carcinoma (LLC) cells were loaded for 30-60 minutes with the fluorescent dye Fluo-4. Final concentration 4 uM Fluo-4, 0.02% pluronic acid in physiological buffer. Cells were then washed with assay buffer, (HBSS containing 1 mM CaCl2, 1 mM MgSO4, and 2.5 mM probenecid). Cells were stimulated with various doses of PAR-2 activating peptide, PAR-1 activating peptide or ATP. Fluorescence was monitored using a Wallac 1470 fluorescent plate reader. (See Al-ani et. al Journal of Pharmacology and Experimental Therapeutics 290:2, 753-760). Additional compound screening was performed using U87-MG human glioma cells. In this assay cells were labeled with FLIPR Calcium 3 dye (Component A), which was dissolved in 10 mls of Assay Buffer without Probenecid. Loading buffer was prepared by diluting Component A with an additional 90 mls of Assay Buffer without Probenecid, giving a total volume of a 100 ml. For plate loading, 11 mls of FLIPR Calcium 3 dye (Component A) is placed into a 15 ml conical tube+110 μl of 250 mM Probenecid, at a final in-well working volume of 2.5 mM. Finally, 50 μl of Calcium 3 dye was added wells containing 100 μl media, and incubated 1 hr, 37° C., 5% CO2. Calcium signaling was then measured using a Flexstation II (Molecular Devices) following manufacturer's instructions.
Potential antagonist compounds were initially screened at 1 mM compound concentration. Those compounds with activity were then subjected to additional confirmatory testing. Activity is reported as treated/controlled (T/C) where the area under the curve (AUC) of calcium mobilization plots in treated wells is divided by the AUC of calcium mobilization plots in control wells to generate a measure of inhibition.
With `NCCCCC(=O)NCc1cc(C(=O)NCC2CCCCC2)no1` [ENMD-1558, 5-[(5-amino-pentanoylamino)-methyl]-isoxazole-3-carboxylic acid cyclohexylmethyl-amide] the “PAR-2 AP2 Signaling Treated/Control” value was 0.60. For `NCCCCCNC(=O)Cc1csc(NC(=O)CC2CCCCC2)n1` [ENMD-1559, N-(5-amino-pentyl)-2-[2-(2-cyclohexyl-acetyl-amino)-thiazol-4-yl]-acetamide], the “PAR-2 AP2 Signaling Treated/Control” value was 0.52. In the case of `NCCCCCC(=O)Nc1nc(CC(=O)NCC2CCCCC2)cs1` [ENMD-1560, 6-amino-hexanoic acid {4-[(cyclohexylmethyl-carbamoyl)-methyl]-thiazol-2-yl}-amide], the “PAR-2 AP2 Signaling Treated/Control” value was 0.48. With `CC(C)CNC(=O)c1ccc(NCCCCN)nc1` [ENMD-1562, 6-(4-aminobutylamine)-3-(isobutyl)-nicotinoyl amide] the “PAR-2 AP2 Signaling Treated/Control” value was 0.57. `CC(C)CCn1c(=O)n(CCc2ccc(NC(C)C)cc2)c2ccccc21` [ENMD-1563, 1-[4-(isopropylamine)-phenethyl]-3-isopentyl-1H-benzo[d]imidazole-2(3H)-one] was tested, and the “PAR-2 AP2 Signaling Treated/Control” value was 0.62. `CC(C)Nc1ccc(CCn2c(=O)n(CCC3CCCCC3)c3ccccc32)cc1` [ENMD-1564, 1-[4-(isopropylamine)-phenethyl]-3-(2-cyclo-hexylethyl)-1H-benzo[d]imidazole-2(3H)-one] was tested, and the “PAR-2 AP2 Signaling Treated/Control” value was 1.16. In the case of `NCCCCOc1ccc(OCc2ccccc2)cc1` [ENMD-1566, 4-(4-(benzyloxy)phenoxy)butan-1-amine hydrochloride], the “PAR-2 AP2 Signaling Treated/Control” value was 0.01. With `Cl.NCCCOc1ccc(OCC2CCCCC2)cc1` [ENMD-1567, 3-(4-(cyclohexylmethoxy)phenoxy)propan-1-amine hydrochloride] the “PAR-2 AP2 Signaling Treated/Control” value was 0.08. With `NCCCCC(=O)Nc1ccc(C(=O)NCC2CCCCC2)cc1` [ENMD-1568, 4-(5-aminopentanamide)-N-(cyclohexylmethyl)-benzamide] the “PAR-2 AP2 Signaling Treated/Control” value was 0.92. `CC(C)CNC(=O)c1cccn1CCCCCCN` [ENMD-1569, 1-(6-aminohexyl)-2-[N′-isobutyl]-pyrrole carboxamide] was tested, and the “PAR-2 AP2 Signaling Treated/Control” value was 0.77. With `NCCCCCCn1cccc1C(=O)NCC1CCCCC1` [ENMD-1570] the “PAR-2 AP2 Signaling Treated/Control” value was 0.05. In the case of `NCCCCNC(=O)c1cnc(NCC2CCCCC2)cn1` [ENMD-1571, 4-aminobutyl-6-cyclohexanemethylamino-2-pyrazine amide], the “PAR-2 AP2 Signaling Treated/Control” value was 0.81. For `O=C(NCCC1CCNCC1)c1cnc(NCC2CCCCC2)cn1` [ENMD-1572, 4-(piperidinethyl)-6-cyclohexanemethylamino-2-pyrazine amide], the “PAR-2 AP2 Signaling Treated/Control” value was 0.10. For `CC(C)CCn1c(=O)n(CCc2ccc(N)cc2)c2ccccc21` [ENMD-1573, 1-(4-aminophenethyl)-3-isopentyl-1H-benzo[d]imidazole-2(3H)-one], the “PAR-2 AP2 Signaling Treated/Control” value was 0.01. `Nc1ccc(CCn2c(=O)n(CCC3CCCCC3)c3ccccc32)cc1` [ENMD-1574, 1-(4-aminophenethyl)-3-(2-cyclohexylethyl)-1H-benzo[d]imidazole-2(3H)-one] was tested, and the “PAR-2 AP2 Signaling Treated/Control” value was 0.01. With `CC(C)CC(=O)N1CC2CN(C(=O)Cc3ccc(N)cc3)CC2C1` (centres unmarked) [ENMD-1763] the “PAR-2 AP2 Signaling Treated/Control” value was 0.83. `CC(C)CC(=O)N1CC2CN(C(=O)CCCCCN)CC2C1` (centres unmarked) [ENMD-1764] was tested, and the “PAR-2 AP2 Signaling Treated/Control” value was 0.96. For `NCCCCCNC(=O)c1ccc(C(=O)NCC2CCCCC2)cc1` [ENMD-1766, N^1-(5-aminopentyl)-N-4-(cyclohexylmethyl)-terephthalamide], the “PAR-2 AP2 Signaling Treated/Control” value was 0.73. `Cl.O=C(CC1CCCCC1)N1CCN(C(=O)C2CCNCC2)CC1` [ENMD-1770, N^1-2-cyclohexylethanoyl-N-4-piperidine-4-carbonyl-piperazine hydrochloride] was tested, and the “PAR-2 AP2 Signaling Treated/Control” value was 0.91. In the case of `Cl.O=C(CC1CCCCC1)Nc1ccc(NC(=O)C2CCCNC2)cc1` (centres unmarked) [ENMD-1771, N-(4-(2-cyclohexylacetamido)phenyl) piperidine-3-carboxamide hydrochloride], the “PAR-2 AP2 Signaling Treated/Control” value was 0.05. `Cl.O=C(CC1CCCCC1)Nc1ccc(NC(=O)C2CCNCC2)cc1` [ENMD-1772, N-(4-(2-cyclohexylacetamido)phenyl) piperidine-4-carboxamide hydrochloride] was tested, and the “PAR-2 AP2 Signaling Treated/Control” value was 0.73. For `Cl.O=C(CC1CCCCC1)N1CCN(C(=O)C2CCCNC2)CC1` (centres unmarked) [ENMD-1773, N1-2-cyclohexylethanoyl-N-4-piperidine-3-carbonyl-piperazine hydrochloride], the “PAR-2 AP2 Signaling Treated/Control” value was 0.85. `Cl.N[C@@H]1CCC[C@H](C(=O)N2CCN(C(=O)CC3CCCCC3)CC2)C1` [ENMD-1774, N^1-2-cyclohexylethanoyl-N-4-cis-3-amino-cyclohexane-carbonyl piperazine hydrochloride] was tested, and the “PAR-2 AP2 Signaling Treated/Control” value was 0.75. In the case of `NCCCCCNc1cnc(C(=O)NCC2CCCCC2)cn1` [ENMD-1775, cyclohexylmethyl-6-(5-aminopentaneamino)-2-pyrazine amide], the “PAR-2 AP2 Signaling Treated/Control” value was 0.90. In the case of `NCCCCCC(=O)N1CC2CN(C(=O)CC3CCCCC3)CC2C1` (centres unmarked) [ENMD-1776], the “PAR-2 AP2 Signaling Treated/Control” value was 0.82. In the case of `Nc1ccc(CC(=O)N2CC3CN(C(=O)CC4CCCCC4)CC3C2)cc1` (centres unmarked) [ENMD-1777, 1-(2-(2-(4-aminophenyl)acetyl-hexahydro-pyrrolo[3,4-c]pyrrol-5-(1H)-yl)-2-cyclohexyl)ethan-1-one], the “PAR-2 AP2 Signaling Treated/Control” value was 0.64. With `NCCC1CCN(c2cnc(C(=O)NCCC3CCCCC3)cn2)CC1` [ENMD-1778, cyclohexylethyl-6-(4-aminoethylpiperdine)-2-pyrazine amide] the “PAR-2 AP2 Signaling Treated/Control” value was 0.05. With `Cl.N[C@H]1CC[C@H](C(=O)N2CCN(C(=O)CC3CCCCC3)CC2)C1` [ENMD-1779, N1-2-cyclohexylethanoyl-N-4-(1R,3R)-1-amino-cyclopentane-3-carbonyl piperazine hydrochloride] the “PAR-2 AP2 Signaling Treated/Control” value was 0.89. In the case of `Cl.O=C(CC1CCCCC1)N1CCN(C(=O)C2CNCCO2)CC1` (centres unmarked) [ENMD-1780, N^1-2-cyclohexylethanoyl-N-4-morpholine-2-carbonyl-piperazine hydrochloride], the “PAR-2 AP2 Signaling Treated/Control” value was 0.86. In the case of `Cl.N[C@H]1CC[C@@H](C(=O)N2CCN(C(=O)CC3CCCCC3)CC2)CC1` [ENMD-1781, N^1-2-cyclohexylethanoyl-N-4-cis-4-amino-cyclohexane-carbonyl piperazine hydrochloride], the “PAR-2 AP2 Signaling Treated/Control” value was 0.71.

Same assay, conditions: mimetic antagonists; AUC of calcium mobilization treated/control; initially screened at 1 mM compound; hydrochloride
With `CC(C)CC(=O)Nc1nc(CC(=O)NCCCCCN)cs1` [ENMD-1561, N-{4-[(5-Amino-pentylcarbamoyl)-methyl]-thiazol-2-yl}-3-methyl-butyramide hydrochloride] the “PAR-2 AP2 Signaling Treated/Control” value was 0.89.

Same assay, conditions: peptides; AUC of calcium mobilization treated/control; initially screened at 1 mM compound
“IG-Dab (Ile-Gly-[Dab]) [ENMD-1024, Dab=diamino butanoic acid]” was tested, and the “PAR-2 AP2 Signaling Treated/Control (T/C)” value was 0.27. “IG-Dap (Ile-Gly-[Dap]) [ENMD-1025, Dap=diamino proprionic acid]” was tested, and the “PAR-2 AP2 Signaling Treated/Control (T/C)” value was 0.31. For IG-Orn (Ile-Gly-[Orn]) [ENMD-1029], the “PAR-2 AP2 Signaling Treated/Control (T/C)” value was 0.42. For IG-dK (Ile-Gly-[dK]) [ENMD-1087], the “PAR-2 AP2 Signaling Treated/Control (T/C)” value was 0.33. With IGK-amide (Ile-Gly-Lys-NH2) [ENMD-1021] the “PAR-2 AP2 Signaling Treated/Control (T/C)” value was 0.67. In the case of IGR [ENMD-1023], the “PAR-2 AP2 Signaling Treated/Control (T/C)” value was 0.23. In the case of L-HyP-GK (L[Hyp]GK) [ENMD-1061], the “PAR-2 AP2 Signaling Treated/Control (T/C)” value was 1.16. With L-HyP-K (Leu-[Hyp]-Lys) [ENMD-1060] the “PAR-2 AP2 Signaling Treated/Control (T/C)” value was 1.29. In the case of “L-Imid-GK (L[Imid]GK; reading uncertain; also: printed as L-Imid-GK) [ENMD-1063]”, the “PAR-2 AP2 Signaling Treated/Control (T/C)” value was 0.94. With “L-Imid-K (Leu-[Imid]-Lys; reading uncertain; also: printed as L-Imid-K) [ENMD-1062]” the “PAR-2 AP2 Signaling Treated/Control (T/C)” value was 0.94. For L-NiP-K (Leu-[Nip]-Lys) [ENMD-1058], the “PAR-2 AP2 Signaling Treated/Control (T/C)” value was 1.58. L-Nip-GK (L[Nip]GK) [ENMD-1059] was tested, and the “PAR-2 AP2 Signaling Treated/Control (T/C)” value was 0.97. In the case of L-Sta-GK (L[Sta]GK) [ENMD-1057], the “PAR-2 AP2 Signaling Treated/Control (T/C)” value was 1.40. L-Sta-K (Leu-[Sta]-Lys) [ENMD-1056] was tested, and the “PAR-2 AP2 Signaling Treated/Control (T/C)” value was 1.35. For “LIG-(4-aminoF) (LIG[Phe(4-NH2)]) [ENMD-1030]”, the “PAR-2 AP2 Signaling Treated/Control (T/C)” value was 0.05. For LIG-Dab (LIG[Dab]) [ENMD-1026], the “PAR-2 AP2 Signaling Treated/Control (T/C)” value was 0.23. For LIG-Dap (LIG[Dap]) [ENMD-1027], the “PAR-2 AP2 Signaling Treated/Control (T/C)” value was 0.30. With “LIG-Orn (LIG[Orn]) [ENMD-1028, Orn=ornithine]” the “PAR-2 AP2 Signaling Treated/Control (T/C)” value was 0.36. In the case of LIG-dK (LIG[dK]) [ENMD-1384], the “PAR-2 AP2 Signaling Treated/Control (T/C)” value was 0.16. For LIGD [ENMD-1045], the “PAR-2 AP2 Signaling Treated/Control (T/C)” value was 0.39. In the case of LIGE [ENMD-1046], the “PAR-2 AP2 Signaling Treated/Control (T/C)” value was 0.34. LIGH [ENMD-1054] was tested, and the “PAR-2 AP2 Signaling Treated/Control (T/C)” value was 0.83.
